Laboratory results taken from patent US20250270170A1, “2,3-DIMETHOXY-5-METHYL-1,4-BENZOQUINONE ALKYL ALCOHOL DERIVATIVE AND USE THEREOF” (BEIJING ANJIANXI BIO-MEDICAL TECHNOLOGY CO., LTD., priority 2021, published 2025).
Marks after values point to notes of the source that are not given here.

Test system: human gastric cancer NCI-N87 transplanted tumor
Assay: Example 3: tumor growth in NCI-N87 transplanted tumor model in nude mice
Format: in vivo, BALB/c nude mice
Method: Female BALB/c nude mice (age: 6 to 7 weeks) were purchased from Beijing Vital River Laboratory Animal Technology Co., Ltd. The mice were raised in an SPF animal room at a temperature of 20 to 25° C., a relative humidity of 40% to 70%, and a cycle of 12 hours of light and 12 hours of dark. The animals had free access to water and food. After about 1 week of normal feeding, mice with good physical condition after the veterinary examination were selected for this assay. Before grouping, a marker was used to mark on the base of the animals' tail. After grouping, each animal was marked with an ear cutout.
The solution was prepared before each administration. An appropriate amount of DDP was weighed and put into a glass bottle. Then, an appropriate volume of physiological saline was added to the bottle, and vortexed (may be heated in a water bath to 50 to 60° C.) to completely dissolve the drug.
An appropriate amount of the compound was weighed and added to an appropriate volume of dimethylacetamide (DMA). The mixture was vortexed to prepare a stock solution (8 mg·mL^−1). The stock solution was prepared once a week, divided into packages and then stored in a 2 to 8° C. refrigerator. One tube was taken out before each administration, and an appropriate volume of 30% Solutol and PEG400 was added while vortexing. The mixture was vortexed and mixed well. Then, an appropriate volume of physiological saline was added, and mixed well to give an administration formulation with a concentration of 0.4 mg·mL^−1, in which the volume ratio of DMA: 30% Solutol: PEG 400: physiological saline was 5:20:20:55.
Human gastric cancer cells NCI-N87 were obtained from the Cell Bank of the Type Culture Collection Committee of Chinese Academy of Sciences (cryopreserved in liquid nitrogen in the laboratory).
NCI-N87 cells were routinely cultured in a RPMI-1640 culture medium containing 10% fetal bovine serum under culture conditions of 37° C. and 5% CO2. The cells were digested with 0.25% trypsin, and passaged according to the cell growth conditions with a passaging ratio of 1:3 to 1:5.
The NCI-N87 cells in the logarithmic growth phase were collected, counted and resuspended in a serum-free RPMI-1640 medium, and the cell concentration was adjusted to 5×10^7 cells/mL. The cells were pipetted with a pipette to disperse them evenly, and the cells were put into a 50-mL centrifuge tube, which was placed in an ice box. A 1-mL syringe was used to draw the cell suspension, which was injected subcutaneously into the axilla of the front right limb of a nude mouse. Each animal was inoculated with 100 μL (5×10^6 cells/mouse) to establish an NCI-N87 transplanted tumor model in nude mice. After the inoculation, the animal status and tumor growth were regularly observed, and the tumor diameter was measured using an electronic vernier caliper. The data were input into an Excel spreadsheet to calculate the tumor volume. When the tumor volume reached 100 to 300 mm^3, 72 animals in good health and with similar tumor volumes were selected and divided into 9 groups (n=8) using randomized block method. The day of grouping was regarded as the first day of the assay (D1). After the start of the assay, the tumor diameter was measured twice a week, the tumor volume was calculated, and the animal body weight was also weighed and recorded.
The calculation formula of tumor volume (TV) is as follows: […]
wherein l represents the long diameter of a tumor (mm); and w represents the short diameter of a tumor (mm).
On the last day of the assay (D44), the animals were anesthetized using CO2 inhalation 1 hour after administration (R01) and sacrificed, and tumor tissues were collected, weighed, and photographed.
The calculation formula of tumor growth inhibition rate TGI (%) is: […]

[1] = D16, DDP 4/4/5/5 mg/kg i.p. QW×4
[2] = D20, DDP 4/4/5/5 mg/kg i.p. QW×4
[3] = D23, DDP 4/4/5/5 mg/kg i.p. QW×4
[4] = D27, DDP 4/4/5/5 mg/kg i.p. QW×4
[5] = D30, DDP 4/4/5/5 mg/kg i.p. QW×4
[6] = D34, DDP 4/4/5/5 mg/kg i.p. QW×4
[7] = D37, DDP 4/4/5/5 mg/kg i.p. QW×4
[8] = D44, DDP 4/4/5/5 mg/kg i.p. QW×4

In the case of `N.N.[Cl][Pt][Cl]` [DDP, cisplatin], the Mean tumor volume (D13, DDP 4/4/5/5 mg/kg i.p. QW×4) is reported as 141 ± 9 mm^3, the Mean tumor volume [1] is reported as 194 ± 18 mm^3 and the “tumor growth inhibition rate” value [1] is reported as “(36%)”. For the same molecule, the Mean tumor volume [2] was 245 ± 22 mm^3, the “tumor growth inhibition rate” value [2] was “(37%)” and the Mean tumor volume [3] was 276 ± 28* mm^3. For the same molecule, the “tumor growth inhibition rate” value [3] was “(43%)”, the Mean tumor volume [4] was 351 ± 22** mm^3 and the “tumor growth inhibition rate” value [4] was “(46%)”. The Mean tumor volume [5] was 413 ± 27** mm^3, the “tumor growth inhibition rate” value [5] was “(51%)” and the Mean tumor volume [6] was 492 ± 33** mm^3. The “tumor growth inhibition rate” value [6] was “(54%)”, the Mean tumor volume [7] was 580 ± 47** mm^3 and the “tumor growth inhibition rate” value [7] was “(55%)”. The Mean tumor volume [8] was 684 ± 45** mm^3 and the “tumor growth inhibition rate” value [8] was “(56%)”.

`COC1=C(OC)C(=O)C(CCCCCCCCCCOC(=O)Cc2c(C)n(C(=O)c3ccc(Cl)cc3)c3ccc(OC)cc23)=C(C)C1=O` [compound of formula (I)] was tested, and the Mean tumor volume (D13, 2 mg/kg i.g. BID×28) was 141 ± 9 mm^3, the Mean tumor volume (D13, 6 mg/kg i.g. BID×28) was 140 ± 8 mm^3 and the Mean tumor volume (D13, 18 mg/kg i.g. BID×28) was 134 ± 8 mm^3. For the same molecule, the Mean tumor volume (D16, 2 mg/kg i.g. BID×28) was 180 ± 17 mm^3, the “tumor growth inhibition rate” value (D16, 2 mg/kg i.g. BID×28) was “(52%)” and the Mean tumor volume (D16, 6 mg/kg i.g. BID×28) was 183 ± 10 mm^3. The “tumor growth inhibition rate” value (D16, 6 mg/kg i.g. BID×28) was “(48%)”, the Mean tumor volume (D16, 18 mg/kg i.g. BID×28) was 175 ± 19 mm^3 and the “tumor growth inhibition rate” value (D16, 18 mg/kg i.g. BID×28) was “(50%)”. The Mean tumor volume (D20, 2 mg/kg i.g. BID×28) was 218 ± 17** mm^3, the “tumor growth inhibition rate” value (D20, 2 mg/kg i.g. BID×28) was “(53%)” and the Mean tumor volume (D20, 6 mg/kg i.g. BID×28) was 220 ± 11** mm^3. The “tumor growth inhibition rate” value (D20, 6 mg/kg i.g. BID×28) was “(51%)”, the Mean tumor volume (D20, 18 mg/kg i.g. BID×28) was 209 ± 27* mm^3 and the “tumor growth inhibition rate” value (D20, 18 mg/kg i.g. BID×28) was “(54%)”. The Mean tumor volume (D23, 2 mg/kg i.g. BID×28) was 253 ± 24** mm^3, the “tumor growth inhibition rate” value (D23, 2 mg/kg i.g. BID×28) was “(53%)” and the Mean tumor volume (D23, 6 mg/kg i.g. BID×28) was 255 ± 16** mm^3. The “tumor growth inhibition rate” value (D23, 6 mg/kg i.g. BID×28) was “(52%)”, the Mean tumor volume (D23, 18 mg/kg i.g. BID×28) was 245 ± 36* mm^3 and the “tumor growth inhibition rate” value (D23, 18 mg/kg i.g. BID×28) was “(54%)”. The Mean tumor volume (D27, 2 mg/kg i.g. BID×28) was 294 ± 30** mm^3, the “tumor growth inhibition rate” value (D27, 2 mg/kg i.g. BID×28) was “(60%)” and the Mean tumor volume (D27, 6 mg/kg i.g. BID×28) was 302 ± 24** mm^3. For the same molecule, the “tumor growth inhibition rate” value (D27, 6 mg/kg i.g. BID×28) was “(58%)”, the Mean tumor volume (D27, 18 mg/kg i.g. BID×28) was 297 ± 48** mm^3 and the “tumor growth inhibition rate” value (D27, 18 mg/kg i.g. BID×28) was “(58%)”. The Mean tumor volume (D30, 2 mg/kg i.g. BID×28) was 332 ± 32** mm^3, the “tumor growth inhibition rate” value (D30, 2 mg/kg i.g. BID×28) was “(65%)” and the Mean tumor volume (D30, 6 mg/kg i.g. BID×28) was 348 ± 31** mm^3. The “tumor growth inhibition rate” value (D30, 6 mg/kg i.g. BID×28) was “(62%)”, the Mean tumor volume (D30, 18 mg/kg i.g. BID×28) was 354 ± 64** mm^3 and the “tumor growth inhibition rate” value (D30, 18 mg/kg i.g. BID×28) was “(60%)”. For the same molecule, the Mean tumor volume (D34, 2 mg/kg i.g. BID×28) was 370 ± 41** mm^3, the “tumor growth inhibition rate” value (D34, 2 mg/kg i.g. BID×28) was “(70%)” and the Mean tumor volume (D34, 6 mg/kg i.g. BID×28) was 412 ± 37** mm^3. The “tumor growth inhibition rate” value (D34, 6 mg/kg i.g. BID×28) was “(64%)”, the Mean tumor volume (D34, 18 mg/kg i.g. BID×28) was 444 ± 79** mm^3 and the “tumor growth inhibition rate” value (D34, 18 mg/kg i.g. BID×28) was “(59%)”. The Mean tumor volume (D37, 2 mg/kg i.g. BID×28) was 450 ± 46** mm^3, the “tumor growth inhibition rate” value (D37, 2 mg/kg i.g. BID×28) was “(68%)” and the Mean tumor volume (D37, 6 mg/kg i.g. BID×28) was 508 ± 38** mm^3. For the same molecule, the “tumor growth inhibition rate” value (D37, 6 mg/kg i.g. BID×28) was “(62%)”, the Mean tumor volume (D37, 18 mg/kg i.g. BID×28) was 492 ± 87** mm^3 and the “tumor growth inhibition rate” value (D37, 18 mg/kg i.g. BID×28) was “(64%)”. The Mean tumor volume (D44, 2 mg/kg i.g. BID×28) was 536 ± 52** mm^3, the “tumor growth inhibition rate” value (D44, 2 mg/kg i.g. BID×28) was “(68%)” and the Mean tumor volume (D44, 6 mg/kg i.g. BID×28) was 595 ± 57** mm^3. For the same molecule, the “tumor growth inhibition rate” value (D44, 6 mg/kg i.g. BID×28) was “(63%)”, the Mean tumor volume (D44, 18 mg/kg i.g. BID×28) was 590 ± 113** mm^3 and the “tumor growth inhibition rate” value (D44, 18 mg/kg i.g. BID×28) was “(63%)”. The “anti-tumor effect compared with cisplatin” value (NCI-N87 transplanted tumor model, summary of Table 5) was “better anti-tumor effect”.
